Measurements from patent US20250361230A1, “LATS Inhibitors and Uses Thereof” (The USA, as Represented by the Secretary, Dept. of Heath …, priority 2022, published 2025).

What was measured:
Assay type in all cases: biochemical
AKT = AKT (Homo sapiens, UniProt P31749); assay: RBC HotSpot kinase assay (33P-ATP, P81 filter-binding), AKT; settings: biochemical kinase inhibition; read-out: AKT IC50
How it was run: (§1)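 Compounds were run as single 10-point titrations to give IC50 values in nM. Each kinase was mixed with substrate and cofactors in 20 mM Hepes pH 7.5 reaction buffer with 1% DMSO, then exposed to compound for 20 min. 33P-ATP was added for a 2 h room-temperature reaction, with activity measured by P81 filter binding.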

LATS1 = target: T1, LATS1 (Homo sapiens, UniProt O95835); assay: RBC HotSpot kinase assay (33P-ATP, P81 filter-binding), LATS1; settings: biochemical kinase inhibition; read-out: LATS1 IC50
T1 sequence (O95835 1-1130): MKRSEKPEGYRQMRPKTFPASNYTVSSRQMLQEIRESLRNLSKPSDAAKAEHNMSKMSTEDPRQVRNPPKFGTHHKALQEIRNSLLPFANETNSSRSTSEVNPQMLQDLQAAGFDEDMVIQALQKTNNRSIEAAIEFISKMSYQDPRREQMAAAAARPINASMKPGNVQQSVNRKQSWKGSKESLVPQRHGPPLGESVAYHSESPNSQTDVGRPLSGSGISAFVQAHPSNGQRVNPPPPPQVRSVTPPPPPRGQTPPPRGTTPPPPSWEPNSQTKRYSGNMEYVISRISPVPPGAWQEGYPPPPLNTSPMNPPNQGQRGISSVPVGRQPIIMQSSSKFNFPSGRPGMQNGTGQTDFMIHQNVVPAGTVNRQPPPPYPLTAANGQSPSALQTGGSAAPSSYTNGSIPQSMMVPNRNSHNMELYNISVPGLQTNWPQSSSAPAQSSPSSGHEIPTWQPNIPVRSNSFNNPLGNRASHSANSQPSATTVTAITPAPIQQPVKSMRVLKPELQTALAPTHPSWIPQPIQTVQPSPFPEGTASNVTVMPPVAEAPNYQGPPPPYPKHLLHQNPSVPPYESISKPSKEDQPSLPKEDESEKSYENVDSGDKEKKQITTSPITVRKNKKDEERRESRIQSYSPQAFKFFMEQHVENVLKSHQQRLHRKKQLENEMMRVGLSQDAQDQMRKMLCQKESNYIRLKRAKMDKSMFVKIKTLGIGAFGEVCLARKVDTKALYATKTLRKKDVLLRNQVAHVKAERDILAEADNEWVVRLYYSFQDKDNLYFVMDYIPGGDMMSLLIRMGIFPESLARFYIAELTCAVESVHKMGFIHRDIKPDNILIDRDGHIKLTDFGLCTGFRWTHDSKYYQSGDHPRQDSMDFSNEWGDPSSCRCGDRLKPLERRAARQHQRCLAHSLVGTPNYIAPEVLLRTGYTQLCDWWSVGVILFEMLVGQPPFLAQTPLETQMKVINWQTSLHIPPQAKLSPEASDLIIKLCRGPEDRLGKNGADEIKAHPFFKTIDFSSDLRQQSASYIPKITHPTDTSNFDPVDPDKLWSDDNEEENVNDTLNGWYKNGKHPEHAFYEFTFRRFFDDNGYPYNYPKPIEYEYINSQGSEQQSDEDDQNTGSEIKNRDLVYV
How it was run: as §1

LATS2 = target: T2, LATS2 (Homo sapiens, UniProt Q9NRM7); assay: RBC HotSpot kinase assay (33P-ATP, P81 filter-binding), LATS2; settings: biochemical kinase inhibition; read-out: LATS2 IC50
T2 sequence (Q9NRM7 1-1088): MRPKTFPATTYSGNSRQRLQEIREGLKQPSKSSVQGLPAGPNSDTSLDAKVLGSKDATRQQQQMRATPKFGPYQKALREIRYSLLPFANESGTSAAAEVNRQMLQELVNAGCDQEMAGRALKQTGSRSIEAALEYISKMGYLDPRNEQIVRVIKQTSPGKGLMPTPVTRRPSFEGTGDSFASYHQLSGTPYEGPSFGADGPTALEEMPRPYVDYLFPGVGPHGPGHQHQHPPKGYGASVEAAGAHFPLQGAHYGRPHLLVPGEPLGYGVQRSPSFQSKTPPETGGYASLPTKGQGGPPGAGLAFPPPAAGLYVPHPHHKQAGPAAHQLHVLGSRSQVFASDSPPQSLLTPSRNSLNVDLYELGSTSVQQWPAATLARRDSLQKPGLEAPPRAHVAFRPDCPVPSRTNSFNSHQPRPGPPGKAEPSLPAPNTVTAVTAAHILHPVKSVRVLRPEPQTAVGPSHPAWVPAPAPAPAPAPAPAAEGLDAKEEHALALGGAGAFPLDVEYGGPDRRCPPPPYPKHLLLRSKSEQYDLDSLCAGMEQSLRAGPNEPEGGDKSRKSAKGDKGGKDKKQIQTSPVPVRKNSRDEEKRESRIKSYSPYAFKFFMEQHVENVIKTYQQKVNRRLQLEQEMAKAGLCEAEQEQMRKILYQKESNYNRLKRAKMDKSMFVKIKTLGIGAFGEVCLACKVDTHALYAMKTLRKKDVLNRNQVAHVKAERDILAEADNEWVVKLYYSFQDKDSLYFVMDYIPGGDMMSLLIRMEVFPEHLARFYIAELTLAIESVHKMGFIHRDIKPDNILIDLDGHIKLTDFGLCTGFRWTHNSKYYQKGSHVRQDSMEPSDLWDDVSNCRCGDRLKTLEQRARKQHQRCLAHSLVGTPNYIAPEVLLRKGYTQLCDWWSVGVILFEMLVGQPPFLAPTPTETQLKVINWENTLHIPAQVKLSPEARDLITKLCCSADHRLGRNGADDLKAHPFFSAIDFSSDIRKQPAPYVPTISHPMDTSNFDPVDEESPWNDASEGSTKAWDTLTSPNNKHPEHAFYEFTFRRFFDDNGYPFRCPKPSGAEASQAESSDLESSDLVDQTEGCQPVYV
How it was run: as §1

Chain of AKT (P31749 whole entry): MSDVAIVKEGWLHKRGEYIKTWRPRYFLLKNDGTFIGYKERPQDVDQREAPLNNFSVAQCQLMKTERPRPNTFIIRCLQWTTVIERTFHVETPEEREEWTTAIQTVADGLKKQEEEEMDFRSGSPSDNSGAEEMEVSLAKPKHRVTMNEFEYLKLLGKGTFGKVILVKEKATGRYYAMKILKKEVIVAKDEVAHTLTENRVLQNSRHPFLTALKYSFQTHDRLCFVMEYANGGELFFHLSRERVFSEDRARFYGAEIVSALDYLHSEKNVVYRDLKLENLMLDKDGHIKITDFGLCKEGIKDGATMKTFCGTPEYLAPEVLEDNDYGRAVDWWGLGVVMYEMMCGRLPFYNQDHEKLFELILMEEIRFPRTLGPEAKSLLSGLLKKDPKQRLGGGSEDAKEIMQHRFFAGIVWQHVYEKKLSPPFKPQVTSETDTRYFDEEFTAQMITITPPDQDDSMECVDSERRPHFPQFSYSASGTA

Row | SMILES | IC50 (AKT) | IC50 (LATS1) | IC50 (LATS2)
1 | Cc1cc(-c2ccnc3[nH]cc(C#N)c23)cc(F)c1[C@@]1(O)[C@H](C)CN(C(=O)[C@H](N)CO)C[C@@H]1C [Compound 2007, 4-(4-((3S,4S,5R)-1-(D-seryl)-4-hydroxy-3,5-dimethylpiperidin-4-yl)-3-fluoro-5-methylphenyl)-1H-pyrrolo[2,3-b]pyridine-3-carbonitrile] | 159 nM | 8.5 nM | 5.3 nM
2 | Cc1cc(-c2ccnc3[nH]cc(C#N)c23)cc(F)c1[C@@]1(O)[C@H](C)CN(C(=O)[C@](C)(N)CO)C[C@@H]1C [Compound 2008, 4-(4-((3S,4s,5R)-1-(2-amino-3-hydroxy-2-methylpropanoyl)-4-hydroxy-3,5-dimethylpiperidin-4-yl)-3-fluoro-5-methylphenyl)-1H-pyrrolo[2,3-b]pyridine-3-carbonitrile] | 262 nM | 5.2 nM | 5.5 nM
3 | Cc1cc(-c2ccnc3[nH]cc(C#N)c23)cc(F)c1[C@@]1(O)[C@H](C)CN(C(=O)[C@H](C)N)C[C@@H]1C [Compound 2011, 4-(4-((3S,4R,5R)-1-(L-alanyl)-4-hydroxy-3,5-dimethylpiperidin-4-yl)-3-fluoro-5-methylphenyl)-1H-pyrrolo[2,3-b]pyridine-3-carbonitrile] | 1030 nM | 25 nM | 16 nM
4 | CNCC(=O)N1C[C@@H](C)[C@](O)(c2c(C)cc(-c3ccnc4[nH]cc(C#N)c34)cc2F)[C@@H](C)C1 [Compound 2012, 4-(3-fluoro-4-((3S,4s,5R)-4-hydroxy-3,5-dimethyl-1-(methylglycyl)piperidin-4-yl)-5-methylphenyl)-1H-pyrrolo[2,3-b]pyridine-3-carbonitrile] | 349 nM | 5 nM | 2.9 nM
5 | Cc1cc(-c2ccnc3[nH]cc(C#N)c23)cc(F)c1[C@@]1(O)[C@H](C)CN(C(=O)CNCC(F)(F)F)C[C@@H]1C [Compound 2014, 4-(3-fluoro-4-((3S,4s,5R)-4-hydroxy-3,5-dimethyl-1-((2,2,2-trifluoroethyl)glycyl)piperidin-4-yl)-5-methylphenyl)-1H-pyrrolo[2,3-b]pyridine-3-carbonitrile] | 3010 nM | 7.1 nM | 6 nM
6 | Cc1cc(-c2ccnc3[nH]cc(C#N)c23)cc(F)c1[C@@]1(O)[C@H](C)CN(C(=O)[C@@H](C)N)C[C@@H]1C [Compound 2015, 4-(4-((3S,4S,5R)-1-(D-alanyl)-4-hydroxy-3,5-dimethylpiperidin-4-yl)-3-fluoro-5-methylphenyl)-1H-pyrrolo[2,3-b]pyridine-3-carbonitrile] | 236 nM | 4 nM | 2 nM
7 | Cc1cc(-c2ccnc3[nH]cc(C#N)c23)cc(F)c1[C@@]1(O)[C@H](C)CN(C(=O)C(N)C(F)(F)F)C[C@@H]1C (stereo partly drawn) [Compound 2017, 4-(4-((3S,4s,5R)-1-(2-amino-3,3,3-trifluoropropanoyl)-4-hydroxy-3,5-dimethylpiperidin-4-yl)-3-fluoro-5-methylphenyl)-1H-pyrrolo[2,3-b]pyridine-3-carbonitrile] | 2050 nM | 8.2 nM | 6.9 nM
8 | Cc1cc(-c2ccnc3[nH]cc(C#N)c23)cc(F)c1[C@@]1(O)[C@H](C)CN(C(=O)[C@H](CO)N(C)C)C[C@@H]1C [Compound 2023, 4-(4-((3S,4R,5R)-1-(dimethyl-L-seryl)-4-hydroxy-3,5-dimethylpiperidin-4-yl)-3-fluoro-5-methylphenyl)-1H-pyrrolo[2,3-b]pyridine-3-carbonitrile] | 388 nM | 4.4 nM | 2.9 nM
9 | Cc1cc(-c2ccnc3[nH]cc(C#N)c23)cc(F)c1[C@@]1(O)[C@H](C)CNC[C@@H]1C [Compound 2024, 4-(3-fluoro-4-((3S,4s,5R)-4-hydroxy-3,5-dimethylpiperidin-4-yl)-5-methylphenyl)-1H-pyrrolo[2,3-b]pyridine-3-carbonitrile] | 334 nM | 6.6 nM | 4.2 nM
